1 compound from US4543256A, “(-)-10,1L Methylenedioxy-N-N-propylnoraporphine and methods employing it for inhibiting the effects of epileptic seizures and for prevention and treatment of duodenal ulcers” (Northeastern University, priority 1982, dated 1985) can be followed below.

The structures appear in SMILES notation. Structures can show the parent of a compound that is named as a salt.

The test system of this assay is rats. As to the kind of experiment: Locomotor (general motor) activity, electronic activity monitor. Format: in vivo, rat (male Sprague-Dawley). Here is the method: Male Sprague-Dawley (Charles River Labs.) rats (initially 175-200 g) were housed four per cage, with free access to food and water, under controlled lighting (on 7:00 a.m. to 7:00 p.m.), constant temperature 21°-23° C. and controlled humidity (40-50%). Aporphines were administered, as described below, freshly dissolved in 1 mM citric acid mixed with 0.9% (w/v) saline (1:4, vols.); this solvent was also used as a vehicle ("placebo") control. Haloperidol was given in the same medium; 2-diethyl aminoethyl-2,2 diphenylvalerate HCl (SKF-525A) was given in saline.
Locomotor activity was evaluated by use of a printing electronic activity monitor (EAM, Stoelting Co., Chicago, IL) within a sound-attenuated chamber, typically for 60 min., as described previously (Stewart, Campbell, Sperk and Baldessarini, 1979, Psychopharmacology 60 281-289; Campbell and Baldessarini, 1981a, Psychopharmacology 73:219-222.
In all experiments except those which evaluated the time-course of drug effects, rats were given an injection of vehicle and then allowed to rest for 15 min. to adapt to nonspecific arousal effects, prior to a second injection of test agent (or placebo) and immediate behavioral testing. Behavioral data were evaluated by Student's t-test and are always expressed as mean ±SEM.
Data are mean values ±SEM (N=4 to 8 rats per condition). Animals were pretreated with SKF-525A (40 mg/kg, i.p.) or its vehicle 30 min before MDO-NPA (in the doses noted, from 0 to 3 mg/kg, i.p.). Activity was then monitored electronically for an hour after the low doses of MDO-NPA (data in counts/hour), or rated for stereotypy every 10 min for an hour after higher doses. N.D. indicates "not determined." (*) Indicates a significant difference by t-test between control and oxidase inhibitor-pretreated rats (p<0.01).
Data are mean values ±SEM (N=3 to 6 rats per condition) for effects of seven aporphine compounds (R=substituents, keyed to the structure above). Full chemical names for all compounds are provided in Methods. Ratings are expressed as percent of the maximum possible score (100%)=18.0) of stereotypy (Placebo-injected controls yielded scores of 4.4±2.5%); and as the percent of control locomotor activity (100%=430±86 counts/hr). Data are provided for a dose of 10 mg/kg (i.p.), although doses of 1 and 5 mg/kg were also tested.

For `CCCN1CCc2cccc3c2[C@H]1Cc1ccc2c(c1-3)OCO2` [MDO-NPA, (-) 10, 11-methylenedioxy-N-n-propylnoraporphine-HCl], the minimal effective dose (Rattus norvegicus, ip, read-out: dose producing increases in general motor activity) is greater than 2 µmol/kg. Moreover, the Activity reads like this: (SKF-525A 40 mg/kg i.p. 30 min before MDO-NPA 0.05 mg/kg i.p., p<0.01 vs control) 425 ± 40 counts/hour; (SKF-525A 40 mg/kg i.p. 30 min before MDO-NPA 0.10 mg/kg i.p., p<0.01 vs control) 415 ± 29 counts/hour; (SKF-525A 40 mg/kg i.p. 30 min before MDO-NPA 0.20 mg/kg i.p., p<0.01 vs control) 410 ± 32 counts/hour; (SKF-525A 40 mg/kg i.p. 30 min before MDO-NPA 0.30 mg/kg i.p.) 440 ± 38 counts/hour; (control (vehicle pretreated), MDO-NPA 0.05 mg/kg i.p.) 190 ± 20 counts/hour; (control (vehicle pretreated), MDO-NPA 0.10 mg/kg i.p.) 130 ± 30 counts/hour. Further, the Activity by setting is: (control (vehicle pretreated), MDO-NPA 0.20 mg/kg i.p.) 260 ± 33 counts/hour; (control (vehicle pretreated), MDO-NPA 0.30 mg/kg i.p.) 435 ± 29 counts/hour. Moreover, for the setting “i.p., about 0.1 mg/kg”, the “dose of maximum effect, inhibition of locomotor activity” value is 0.3 µmol/kg.
